Experimental data from US5811463A, “Compositions and method for relaxing smooth muscles” (University of British Columbia, priority 1996, dated 1998).

Legend:
[1] = test system: mean arterial pressure in conscious rats; assay: Depression of mean arterial pressure in conscious rats in vivo; parameters: species or system rat (Sprague-Dawley); settings: intravenous bolus
Procedure: Likewise, in vivo tests may also be readily developed and utilized in order to determine the efficacy (and therapeutically effective amount) of the transition-metal nitrosyl complexes described above. For example, within one aspect of the present invention, a series of transition-metal nitrosyl complexes were tested in vivo for their ability to reduce the mean arterial blood pressure of conscious rats in vivo. Briefly, as described in greater detail below in Example 6, conscious, unrestrained rats were intravenous bolus injected with the transition-metal nitrosyl complexes. Five of the complexes were determined to dose-dependently reduce mean arterial pressure with maximum depressor effects which ranged from -36 to -59 mm Hg. Maximum depressor effects of sodium nitroprusside and nitroglycerin under similar conditions were -58 and -56 mm Hg, respectively. […] The results of the effects of the transition-metal nitrosyl complexes on the depression of mean arterial pressure in conscious rats in vivo are summarized in Example 5 and Table 1.
(§1) Examples 5-7 present in vitro and in vivo results of the evaluation of the efficiency of the transition-metal nitrosyl complexes in relaxing blood vessels and lowering blood pressure. Sprague-Dawley rats (300-400g) were used for all experiments. Each group consisted of 1-6 rats for the in vivo experiments and 3-6 aortic rings for the in vitro experiments. Each aortic ring was from a different rat.
Example 6 describes the results of the determination of the efficacy of the transition-metal nitrosyl complexes in reducing blood pressure of conscious, unrestrained rats. In these in vivo experiments, the depression of rat arterial pressure was measured as a function of transition-metal nitrosyl complex dose. Dose-response (pressure depression) curves were constructed and the capacities of the transition-metal nitrosyl complexes to reduce arterial pressure were compared and related to nitroglycerin and sodium nitroprusside. The results of these experiments are reported in terms of ED50 (effective dose to produce a 50% pressure depression response) and Emax (maximum decrease in blood pressure) and are summarized in Example 5, Table 1.
(§2) The rats were anaesthetized with halothane (4% in air for induction and 1.5% in air for surgery). A polyethylene cannula (PE50) was inserted into the left iliac artery for the measurement of mean arterial pressure (MAP) by a pressure transducer (P23DB, Gould Statham, Calif.). A PE50 cannula was also inserted into the iliac vein for the administration of the vehicle or a drug. The rats were then put into a small cage and given>6 hr to recover from the effects of anaesthesia and surgery before use. The rats were allowed to move freely during the recovery phase as well as during the conduction of the experiments as described in Wang and Pang, Br. J. Pharmacol. 103:2004-8, 1991. Only one dose-response curve of a metal nitrosyl complex, sodium nitroprusside, nitroglycerin or vehicle (0.9% NaCl solution or dimethylsulfoxide solution) was constructed in each rat. All drugs or vehicle were intravenous bolus injected at dose-intervals of 3-7 min, to allow the recovery of depressor responses, before the injection of the next higher dose.

[2] = test system: phenylephrine pre-constricted rat aortic rings; assay: Relaxation of phenylephrine pre-constricted rat aortic rings in vitro; parameters: species or system rat (Sprague-Dawley); settings: phenylephrine 10^-6 M pre-constricted rat aortic rings; for EC50: read-out: In vitro EC50 (effective concentration to produce a 50% relaxation response)
From the text: As noted above, the present invention also provides methods for relaxing smooth muscle in a warm-blooded animal (e.g., humans, chimps, cows, goats, pigs, dogs, cats, rats or mice) comprising the step of administering to the animal a therapeutically effective amount of a transition-metal nitrosyl complex as described above. Briefly, the efficacy (and therapeutically effective amount) of a particular transition-metal nitrosyl complex may be readily determined by both in vitro and in vivo techniques. See generally Blattner et al., Experiments on Isolated Smooth Muscle Preparations, Hugo Sachs Elektronik KG, 1980 (incorporated herein by reference in its entirety). For example, within one embodiment, a small animal such as a rat, rabbit, or guinea-pig is sacrificed and exsanguinated. The required tissue (e.g., artery, vein, stomach, ileum, jejunum, caecum, colon, uterus, spleen, trachea, seminal vesicle, ductus deferens, or corpus cavernosum) is removed and placed in an oxygenated physiological solution (e.g., Krebs or Tyrode solution). This tissue is then cut such that one end is attached to the bottom of a muscle bath, and the other end to a force-displacement transducer (for example, Grass FT-03-C, Quincy, Mass.) for isometric recording with a physiological recorder (Grass, Model 79G). An appropriate pre-load (0.5 to 10 grams, depending on the tissue) is then applied, and the tissue equilibrated in the bath for one hour prior to the start of the study.
The measurement of smooth muscle contractile response may then be performed essentially as described by Pang and Sutter in Blood Vessels 17:293-301, 1980 (incorporated herein by reference in its entirety). Briefly, a dose-response curve of an agonist (e.g., phenylephrine, norepinephrine) is first obtained by measuring contractile response of the muscle as a function of agonist concentration. Response to the agonist is then measured beginning with the addition of the lowest dose of agonist to the bath. Each dose is equilibrated in the bath for 2 to 6 minutes in order to assure a steady state response, prior to proceeding to the next higher dose.
Measurement of the effectiveness of smooth muscle relaxant compositions may then be determined by measurement of the smooth muscle relaxation response, in a manner analogous to contractile response. See generally Wang, Poon and Pang, J. Pharm. Exp. Ther. 265:112-119, 1993 (incorporated herein by reference in its entirety). Briefly, tissue is first contracted with an agonist such as phenylephrine, usually at a concentration which results in 90% of the tissue's maximum contractile response (referred to EC90). At the steady state phase of the contractile response to the agonist, a cumulative dose-response curve for the smooth muscle relaxant may be determined. For each concentration of relaxant, a steady state is achieved and the relaxation response measured. […] For example, the EC50 of a relaxant is the effective concentration of the relaxant required to relax a pre-contracted muscle to 50% of its maximum contractile response.
as §1
Example 5 presents the results of the evaluation of the efficacy of the transition metal nitrosyl complexes in blood vessel relaxation. In these in vitro experiments, phenylephrine pre-constricted rat aortae were subjected to increasing doses of the transition-metal nitrosyl complexes, and the relaxation of the rat aortae measured. […]

[3] = test system: conscious rats; assay: Toxic dose (convulsion / death) in conscious rats in vivo; parameters: species or system rat (Sprague-Dawley); unit not given here; settings: intravenous bolus; for Toxic dose: dose which caused convulsion: footnote a; for Toxic dose: dose which caused neither convulsion nor death: footnote c
From the text: as §1
^a denotes dose which caused convulsion
^b denotes dose which caused death
^c denotes dose which caused neither convulsion nor death.
as §2

[4] = test system: phenylephrine-preconstricted rat aortic rings; assay: Tolerance: relaxation of rat aortic rings after pre-incubation with CpCr(NO)2 Cl or nitroglycerin; parameters: species or system rat (Sprague-Dawley); settings: 1 h
From the text: In addition to determining efficacy of transition-metal nitrosyl complexes in either in vitro or in vivo tests, it is also generally preferably to determine whether the composition induces tolerance. For example, within one embodiment of the invention, induction of tolerance by the transition-metal nitrosyl complex described above may be readily determined by exposing rat aortic rings to a transition-metal nitrosyl complex prior to relaxation determinations. More specifically, as described in greater detail 10 below in Example 7, intact rat aortic rings were pre-incubated with a typical transition- metal nitrosyl complex for one hour prior to examination of its concentration-relaxation effect in phenylephrine-preconstricted conditions. Unlike the relaxation response of nitroglycerin, the relaxation response of the transition-metal nitrosyl complexes was not diminished by pre-exposure of the aortic ring to the complex.
as §1
Example 7 presents the results of pre-exposing the rat aortae to the transition-metal nitrosyl complexes to evaluate the development of tolerance. In these experiments, the rat aortic rings were pretreated with a transition-metal nitrosyl complex prior to the measurement of dose-dependent relaxation as described above in Example 5.
In this study, the vehicles, CpCr(NO)2 Cl (10^-6 M), or nitroglycerin (3×10^-4 M) was added to the baths for 1 h, followed by the washout of drug or vehicle, preconstriction with phenylephrine and the construction of a concentration-relaxation curve of CpCr(NO)2 Cl.

[5] = test system: blood vessels; settings: cited from earlier work
[6] = pre-incubation nitroglycerin 3×10^-4 M

SMILES | In vivo ED50 (effective dose to produce a 50% pressure depression response) [1] [mg/kg] | In vivo Emax (maximum decrease in blood pressure) [1] [mmHg] | In vitro Emax (percent relaxation of phenylephrine-induced contraction) [2] [%] | EC50 [2] [nM] | Toxic dose: dose which caused convulsion [3] | other results
O=N[O][Cr+]([N]=O)[N]=O.c1cc[cH-]c1 [CpCr(NO)2 (ONO), Nitrito(.eta.^5 -cyclopentadienyl)dinitrosylchromium] | 0.0015 | -45 | -98 | 100 | 1280 | –
O=[N][Cr+]([Cl])[N]=O.c1cc[cH-]c1 [CpCr(NO)2 Cl] | 0.0044 | -42 | -118 | 110 | 2,000 | effect of pre-incubation with CpCr(NO)2 Cl on EC50 and Emax ([4]; pre-incubation CpCr(NO)2 Cl 10^-6 M): did not alter the EC50 or Emax; effect of pre-incubation with nitroglycerin on EC50 and Emax ([4]; pre-incubation nitroglycerin 3×10^-4 M, cross-tolerance): did not alter the EC50 or Emax
C1CCNCC1.O=[N][Cr+][I].c1cc[cH-]c1 [CpCr(NO)(pip)I] | – | – | -110 | 450 | – | –
O=[N][Mo+]([Cl])[N]=O.c1cc[cH-]c1 [CpMo(NO)2 Cl, chloro(.eta.^5 -cyclopentadienyl)nitrosylmolybdenum] | 0.4 | -59 | -113 | 17000 | – | Toxic dose: dose which caused death ([3]; footnote b): 25,600
O=[N][W+]([Cl])[N]=O.c1cc[cH-]c1 [CpW(NO)2 Cl] | 2.976 | -36 | -122 | 2000 | – | Toxic dose: dose which caused neither convulsion nor death [3]: 40,000
O=[N][W+].[C-]#[O+].[C-]#[O+].c1cc[cH-]c1 [CpW(NO)(CO)2, dicarbonyl(.eta.^5 -cyclopentadienyl)nitrosyltungsten] | – | – | -107 | 2500 | 500 | In vivo Emax (maximum decrease in blood pressure), in words ([1]; biphasic denotes depressor followed by pressor response): biphasic
O=[N+]([O-])OCC(CO[N+](=O)[O-])O[N+](=O)[O-] [Nitroglycerin, glyceryl trinitrate, reference compound] | – | -56 | – | 300 | – | tolerance on continual exposure [5]: reduction in the ability of these compounds to vasodilate blood vessels; ED50 ([1]; Rattus norvegicus, read-out: In vivo ED50 (effective dose to produce a 50% pressure depression response)): 0.2 mg/kg; maximum depressor effect [1]: -56 mm Hg; Emax ([2]; read-out: In vitro Emax (percent relaxation of phenylephrine-induced contraction)): -104%; effect of pre-incubation with nitroglycerin on EC50 [4, 6]: EC50 significantly increased; effect of pre-incubation with nitroglycerin on Emax [4, 6]: Emax unaltered
O=[N][Fe]1([N]=O)[I][Fe]([N]=O)([N]=O)[I]1 [[Fe(NO)2 I]2, Iodo(dinitrosyl)iron Dimer] | 0.554 | -51 | -108 | 20000 | – | Toxic dose: dose which caused neither convulsion nor death [3]: 5120
